Patent US20120328719A1, “EXTERNAL PREPARATION FOR SKIN” (Shiseido Company, Ltd., priority 2010, published 2012)

Columns and labels:
[1] = Measurement of moisture transpiration rate constants (filter paper weight loss); assay type: physicochemical; settings: 10 μl on filter paper, slope 3 to 8 min, FIG. 3
Protocol: Heparan sulfate (n=5), chondroitin sulfate A (n=5), chondroitin sulfate B (n=5), keratan sulfate (n=5) and hyaluronic acid (n=5) were dissolved in MilliQ to prepare 0.2% aqueous solutions of each, and 5.0% glycerin (n=5) and MilliQ were prepared for use as a comparative sample (n refers to the respective number of samples). Filter paper cut to a size of 2 cm×2 cm was placed on a balance, and the filter paper was impregnated with 10 μl of each solution followed by measuring the weight of the filter paper for 8 minutes at 1 minute intervals. The weight (mg) of the filter paper from 3 to 8 minutes after the start of measurement was plotted on the vertical axis, elapsed time (min) was plotted on the horizontal axis, and the slope (mg/min) of the resulting line was calculated as the moisture transpiration rate constant (FIG. 3).

[2] = system: skin model (EFT-400, MatTek Corp.); test: Immunostaining of skin models; assay type: cell-based; settings: skin model sections, vs control group; for expression level of heparan sulfate (immunostaining): days 4 and 8 of culturing, FIG. 4E-4H; for expression level of loricrin (immunostaining): FIG. 5A-5D; for expression level of filaggrin (immunostaining): FIG. 5E-5H
Protocol: A skin model (EFT-400, MatTek Corp.) was cultured in a special-purpose medium (EFT-400-ASY, MatTek Corp.). Dimethylsulfoxide (DMSO) and ethanol were added to the special-purpose medium to a final concentration of 0.1% for use as a control group, 50 mM 1-[4-(1H-benzoimidazol-2-yl)-phenyl]-3-[4-(1H-benzoimidazol-2-yl)-phenyl]urea (solvent: DMSO) were added to the special-purpose medium to a final concentration of 50 μM for use as a heparanase inhibitor group, 10 mM N-hydroxy-2-[[(4-methoxyphenyl)sulfonyl](3-picolyl)amino]-3-methylbutaneamide hydrochloride (CGS27023A, solvent: ethanol) were added to the special-purpose medium to a final concentration of 10 μM for use as an MMP inhibitor group, and 50 mM 1-[4-(1H-benzoimidazol-2-yl)-phenyl]-3-[4-(1H-benzoimidazol-2-yl)-phenyl]urea (solvent: DMSO) and 10 mM CGS27023A (solvent: ethanol) were added to the special-purpose medium to final concentrations of 50 μM and 10 μM, respectively, for use as a combination heparanase inhibitor+metalloproteinase (MMP) inhibitor group. The medium was replaced daily at 2 mL/well, and the skin model was recovered and used for experimentation on days 4 and 8 of culturing. In addition, during replacement of the medium, all of the culture fluid was collected and stored at −80° C.° for use in the experiments described below.
The skin models following culturing were cut in half with a scalpel and placed in acetone at 4° C. followed by allowing to stand undisturbed for 48 hours at 4° C. The solution was replaced with acetone, methyl benzoate and xylene in that order followed by embedding in paraffin to prepare paraffin blocks in accordance with the AMeX method. Tissue sections having a thickness of 3 μm were prepared followed by immunostaining with perlecan (FIGS. 4A to 4D), heparan sulfate (FIGS. 4E to 4H), loricrin (FIGS. 5A to 5D), filaggrin (FIGS. 5E to 5H) and Ki67 (FIG. 6) on days 4 and 8 of culturing. […] In addition, in the groups containing heparanase inhibitor, the presence of proliferative cells positive for Ki67 was clearly determined to be maintained.

[3] = system: skin model (EFT-400, MatTek Corp.); test: Measurement of hyaluronic acid levels in cultured skin model; assay type: cell-based; settings: heparanase inhibitor 50 μM, CGS27023A 10 μM, FIG. 1B
Protocol: A skin model (EFT-400, MatTek Corp.) was cultured in a special-purpose medium (EFT-400-ASY, MatTek Corp.). […]
Measurement of hyaluronic acid levels was carried out on the aforementioned cultured control group (n=5), MMP inhibitor group (n=5), heparanase inhibitor group (n=5) and combination MMP inhibitor+heparanase inhibitor group (n=5) (n refers to the number of each skin model used in testing). […] The culture supernatants stored at −80° C. were then thawed and hyaluronic acid levels in these solutions were then measured with a hyaluronic acid assay kit (Seikagaku Corp.).

| moisture transpiration rate constant ([1]; 0.2% aqueous solution) | moisture transpiration rate constant ([1]; 5.0% glycerin comparative sample) | Molecule | expression level of heparan sulfate (immunostaining) [2] | expression level of loricrin (immunostaining) [2] | expression level of filaggrin (immunostaining) [2] | hyaluronic acid levels in culture supernatant [3] |
| --- | --- | --- | --- | --- | --- | --- |
| remarkably low |  | hyaluronic acid |  |  |  |  |
|  | roughly the same | OCC(O)CO [glycerin] |  |  |  |  |
|  |  | COc1ccc(S(=O)(=O)N(Cc2cccnc2)C(C(=O)NO)C(C)C)cc1.Cl (stereo not drawn) [MMP inhibitor, N-hydroxy-2-[[(4-methoxyphenyl)sulfonyl](3-picolyl)amino]-3-methylbutaneamide hydrochloride] | increased | increased | increased |  |
|  |  | O=C(Nc1ccc(-c2nc3ccccc3[nH]2)cc1)Nc1ccc(-c2nc3ccccc3[nH]2)cc1 [heparanase inhibitor, 1-[4-(1H-benzoimidazol-2-yl)-phenyl]-3-[4-(1H-benzoimidazol-2-yl)-phenyl]urea] | increased | increased | increased | significant decreases |
